US4382939A, “3-[2-(Mono-and dialkylamino)propyl]-1,2,3,4-tetrahydro-5H-[1]benzopyrano[3,4-C]pyridin- 5-ones useful for treating bronchospastic diseases” (Warner Lambert Company, priority 1982, dated 1983)
Structures can show the parent of a compound that is named as a salt.

test system: bronchospasm (pilocarpine nitrate); experiment: Inhibition of pilocarpine-induced bronchospasm in anesthetized dogs (pulmonary mechanics); format: in vivo, mongrel dogs; settings: Canis lupus familiaris, iv; anesthetized dogs, cumulative i.v. doses, pilocarpine-induced bronchospasm; read-out: ID50 Bronchospasm
Protocol: (§1) In an additional testing procedure, mongrel dogs of either sex, 10.6 to 15.3 kg, are anesthetized with sodium pentobarbital, 30 mg/kg i.v. and then prepared for the monitoring of pulmonary mechanics. A Buxco pulmonary mechanics computer is used to calculate pulmonary resistance, dynamic compliance, and tidal volume from transpulmonary pressure and flow data. Respiratory rate, heart rate and mean arterial blood pressure are also monitored. The femoral vein is cannulated for the delivery of drugs. Pilocarpine nitrate (0.2 mg/kg/hr) is than infused to induce a bronchospasm and salivary flow. […] Salivary output is collected from a catheterized Wharton's duct at five minute intervals. After salivation has stabilized, 3 control collections are taken at 5 minute intervals followed by a series of cumulative i.v. doses of test compound (1, 3, 10, 30, 100, 300, 1000, 3000, and 10,000 μg/kg) that are injected every 5 minutes for 45 minutes. The percent inhibition of both the bronchospasm and salivation are calculated for each dose with a return to pre-pilocarpine resistance levels or cessation of salivation equal to a 100% inhibition.

SMILES | ED50
CC(CN1CCc2c(c(=O)oc3ccccc23)C1)N(C)C (stereo not shown) [H H H Me Me, 3-[2-(Dimethylamino)propyl]-1,2,3,4-tetrahydro-5H-[1]benzopyrano[3,4-c]pyridin-5-one] | 0.192 mg/kg

same assay, conditions: dogs, i.v.; >1 indicates more potent as a bronchodilator than as an antisecretory agent

SMILES | Pulmonary Selectivity*
CC(CN1CCc2c(c(=O)oc3ccccc23)C1)N(C)C (stereo not shown) [H H H Me Me, 3-[2-(Dimethylamino)propyl]-1,2,3,4-tetrahydro-5H-[1]benzopyrano[3,4-c]pyridin-5-one] | 22

test system: salivation (pilocarpine nitrate); experiment: Inhibition of pilocarpine-induced salivation in anesthetized dogs; format: in vivo, mongrel dogs; settings: Canis lupus familiaris, iv, cumulative i.v. doses, pilocarpine-induced salivary flow, read-out: ID50 Salivation
Protocol: as §1

SMILES | ED50
CC(CN1CCc2c(c(=O)oc3ccccc23)C1)N(C)C (stereo not shown) [H H H Me Me, 3-[2-(Dimethylamino)propyl]-1,2,3,4-tetrahydro-5H-[1]benzopyrano[3,4-c]pyridin-5-one] | 4.15 mg/kg

test system: collapse on exposure to an aerosol of methacholine; experiment: Anticholinergic test: prolongation of collapse time in conscious guinea pigs exposed to an aerosol of methacholine; format: in vivo; settings: guinea pig, 25 mg/kg intraperitoneally; 10 minutes methacholine aerosol; Control 1.9 to 2.0
Protocol: The compounds of the invention display anticholinergic properties when tested by the following procedure: Conscious guinea pigs, six at a time, are put into a sealed chamber and exposed for 10 minutes to an aerosol of methacholine. Untreated animals or those treated with vehicle will collapse in 1.9±0.1 minutes. Groups of animals are injected intraperitoneally with 25 mg/kg of test compound and exposed in the chamber under the same conditions. Compounds which prolong the collapse time past that of the control animals are considered active.

SMILES | (Minutes Protection)
CCCCN(C)C(C)CN1CCc2c(c(=O)oc3cc(OC)ccc23)C1 (stereo not shown) [H MeO H Me n-Bu] | 8.6 min
CC(CN1CCc2c(c(=O)oc3ccccc23)C1)N(C)C (stereo not shown) [H H H Me Me, 3-[2-(Dimethylamino)propyl]-1,2,3,4-tetrahydro-5H-[1]benzopyrano[3,4-c]pyridin-5-one] | 10.0 min
CCCN(CC)C(C)CN1CCc2c(c(=O)oc3cc(OC)c(OC)cc23)C1 (stereo not shown) [MeO MeO H Et n-Pr, 3-[2-(Ethylpropylamino)propyl]-1,2,3,4-tetrahydro-8,9-dimethoxy-5H-[1]benzopyrano[3,4-c]pyridin-5-one] | 3.7 min
CCN(C)C(C)CN1CCc2c(c(=O)oc3c(OC)c(OC)ccc23)C1.Cl.Cl (stereo not shown) [H MeO MeO Me Et, 3-[2-(Ethylmethylamino)propyl]-1,2,3,4-tetrahydro-7,8-dimethoxy-5H-[1]benzopyrano[3,4-c]pyridin-5-one dihydrochloride] | 5.0 min
CCCN(C)C(C)CN1CCc2c(c(=O)oc3cc(OC)ccc23)C1 (stereo not shown) [H MeO H Me n-Pr, 1,2,3,4-Tetrahydro-8-methoxy-3[2-(methylpropylamino)propyl]-5H-[1]benzopyrano[3,4-c]pyridin-5-one] | 10.0 min
CCCN(C)C(C)CN1CCc2c(c(=O)oc3cc(OC)c(OC)cc23)C1 (stereo not shown) [MeO MeO H Me n-Pr, 1,2,3,4-Tetrahydro-8,9-dimethoxy-3-[2-(methylpropylamino)propyl]-5H-[1]benzopyrano[3,4-c]pyridin-5-one] | 2.5 min
CCCN(CC)C(C)CN1CCc2c(c(=O)oc3cc(OC)ccc23)C1 (stereo not shown) [H MeO H Et n-Pr, 3-[2-(Ethylpropylamino)propyl]-1,2,3,4-tetrahydro-8-methoxy-5H-[1]benzopyrano[3,4-c]pyridin-5-one] | 10.0 min
CCCN(CC)C(C)CN1CCc2c(c(=O)oc3ccccc23)C1 (stereo not shown) [H H H Et Pr, 3-[2-(Ethylpropylamino)propyl]-1,2,3,4-tetrahydro-5H-[1]benzopyrano[3,4-c]pyridin-5-one] | 6.4 min
CCN(CC)C(C)CN1CCc2c(c(=O)oc3cc(C)c(Cl)cc23)C1 (stereo not shown) [Cl Me H Et Et, 9-Chloro-3-[2-(diethylamino)propyl]-1,2,3,4-tetrahydro-8-methyl-5H-[1]benzopyrano[3,4-c]pyridin-5-one] | 3.4 min
CCN(C)C(C)CN1CCc2c(c(=O)oc3cc(OC)ccc23)C1 (stereo not shown) [H MeO H Me Et, 3-[2-(Ethylmethylamino)propyl]-1,2,3,4-tetrahydro-8-methoxy-5H-[1]benzopyrano[3,4-c]pyridin-5-one] | 9.1 min
CCNC(C)CN1CCc2c(c(=O)oc3c(OC)c(OC)ccc23)C1 (stereo not shown) [H MeO MeO Et H, 3-[2-(Ethylamino)propyl]-1,2,3,4-tetrahydro-7,8-dimethoxy-5H-[1] benzopyrano[3,4-c]pyridin-5-one] | 9.1 min
CCCCN(C)C(C)CN1CCc2c(c(=O)oc3cc(C)ccc23)C1 (stereo not shown) [H Me H Me n-Bu, 3-[2-(Butylmethylamino)propyl]-1,2,3,4-tetrahydro-8-methyl-5H-[1]benzopyrano[3,4-c]pyridin-5-one] | 7.8 min
CCN(CC)C(C)CN1CCc2c(c(=O)oc3c(OC)c(OC)ccc23)C1 (stereo not shown) [H MeO MeO Et Et, 3-[2-(Diethylamino)propyl]-1,2,3,4-tetrahydro-7,8-dimethoxy-5H-[1]benzopyrano[3,4-c]pyridin-5-one] | 7.6 min
CCN(C)C(C)CN1CCc2c(c(=O)oc3cc(OC)c(OC)cc23)C1.Cl.Cl (stereo not shown) [MeO MeO H Me Et, 3-[2-(Ethylmethylamino)propyl]-1,2,3,4-tetrahydro-8,9-dimethoxy-5H-[1]benzopyrano[3,4-c]pyridin-5-one dihydrochloride] | 6.0 min
CC(CN1CCc2c(c(=O)oc3c2ccc2ccccc23)C1)N(C)C (stereo not shown) [H CHCHCHCH Me Me, 2-[2-(Dimethylamino)propyl]-1,2,3,4-tetrahydro-12H-naphtho-[2',1':5,6]pyrano[3,4-c]pyridin-12-one dihydrochlorine] | 5.9 min
CCCN(C)C(C)CN1CCc2c(c(=O)oc3cc(C)ccc23)C1 (stereo not shown) [H Me H Me n-Pr, 1,2,3,4-Tetrahydro-8-methyl-3-[2-(methylpropylamino)propyl]-5H-[1]benzopyrano[3,4-c]pyridin-5-one] | 5.4 min

SMILES | (Minutes Protection)
CNC(C)CN1CCc2c(c(=O)oc3cc(C)ccc23)C1 (stereo not shown) [H Me H Me H, 1,2,3,4-Tetrahydro-8-methyl-3-[2-(methylamine)propyl]-5H-[1]-benzopyrano[3,4-c]pyridin-5-one] | 2.1 min
CNC(C)CN1CCc2c(c(=O)oc3cc(C)c(NC(C)=O)cc23)C1 (stereo not shown) [AcNH Me H Me H, N-[1,3,4,5-Tetrahydro-8-methyl-3-[2-(methylamino)propyl]-5-oxo-2H-[1]benzopyrano[3,4-c]pyridin-9-yl]acetamide] | 10.0 min
COc1ccc2c3c(c(=O)oc2c1)CN(CC(C)N(C)C)CC3.Cl.Cl (stereo not shown) [H MeO H Me Me, 3-[2-(Dimethylamino)propyl]-1,2,3,4-tetrahydro-8-methoxy-5H-[1]benzopyrano[3,4-c]pyridin-5-one dihydrochloride] | 10.0 min
CC(CN1CCc2c(c(=O)oc3cc4c(cc23)OCO4)C1)N(C)C (stereo not shown) [OCH2O H Me Me, 3-[2-(Dimethylamino)propyl]-1,2,3,4-tetrahydro-5H-[1,3]benzodioxolo]5',6':5,6]pyrano[3,4-c]pyridin-5-one dihydrochloride] | 2.3 min
CCNC(C)CN1CCc2c(c(=O)oc3cc(OC)ccc23)C1 (stereo not shown) [H MeO H Et H, 3-[2-(Ethylamino)propyl]-1,2,3,4-tetrahydro-8-methoxy-5H-[1]benzopyrano[3,4-c]pyridin-5-one] | 7.5 min
CCN(CC)C(C)CN1CCc2c(c(=O)oc3cc(OC)ccc23)C1 (stereo not shown) [H MeO H Et Et, 3-[2-(Diethylamino)propyl]-1,2,3,4-tetrahydro-8-methoxy-5H-[1]benzopyrano[3,4-c]pyridin-5-one] | 10.0 min
Cc1cc2oc(=O)c3c(c2cc1C)CCN(CC(C)N(C)C)C3 (stereo not shown) [Me Me H Me Me, 3-[2-(Dimethylamino)propyl]-1,2,3,4-tetrahydro-8,9-dimethyl-5H-[1]benzopyrano[3,4-c]pyridin-5-one] | 4.8 min
COc1ccc2c3c(c(=O)oc2c1OC)CN(CC(C)N(C)C)CC3.Cl.Cl (stereo not shown) [H MeO MeO Me Me, 3-[2-(Dimethylamino)propyl]-1,2,3,4-tetrahydro-7,8-dimethoxy-5H-[1]benzopyrano[3,4-c]pyridin-5-one dihydrochloride] | 5.5 min
CCCN(CC)C(C)CN1CCc2c(c(=O)oc3cc(C)ccc23)C1 (stereo not shown) [H Me H Et n-Pr, 3-[2-(Ethylpropylamino)propyl]-1,2,3,4-tetrahydro-8-methyl-5H-[1]benzopyrano[3,4-c]pyridin-5-one] | 7.6 min
CCCCN(CC)C(C)CN1CCc2c(c(=O)oc3cc(OC)c(OC)cc23)C1 (stereo not shown) [MeO MeO H Et Bu, 3-[2-(Butylethylamino)propyl]-1,2,3,4-tetrahydro-8,9-dimethoxy-5H-[1]benzopyrano[3,4-c]pyridin-5-one] | 3.7 min
CCN(CC(C)C)C(C)CN1CCc2c(c(=O)oc3cc(OC)c(OC)cc23)C1 (stereo not shown) [MeO MeO H Et s-Bu, 3-[2-[Ethyl(2-methylpropyl)amino]propyl]-1,2,3,4-tetrahydro-8,9-dimethoxy-5H-[1]benzopyrano[3,4-c]pyridin-5-one] | 5.4 min
CNC(C)CN1CCc2c(c(=O)oc3cc(OC)ccc23)C1 (stereo not shown) [H MeO H Me H, 1,2,3,4-Tetrahydro-8-methoxy-3-[2-(methylamino)propyl]-5H-[1]benzopyrano[3,4-c]pyridin-5-one] | 8.6 min
CCNC(C)CN1CCc2c(c(=O)oc3cc(C)ccc23)C1 (stereo not shown) [H Me H Et H, 3-[2-(Ethylamine)propyl]-1,2,3,4-tetrahydro-8-methyl-5H-[1]benzopyrano[3,4-c]pyridin-5-one] | 10.0 min
CCOc1cc2oc(=O)c3c(c2cc1OCC)CCN(CC(C)N(CC)CC)C3.Cl.Cl (stereo not shown) [EtO EtO H Et Et, 3-[2-(Diethylamino)propyl]-1,2,3,4-tetrahydro-8,9-diethoxy-5H-[1]benzopyrano[3,4-c]pyridin-5-one dihydrochloride] | 10.0 min
CCNC(C)CN1CCc2c(c(=O)oc3cc(C)c(Cl)cc23)C1 (stereo not shown) [Cl Me H Et H, 9-Chloro-3-[2-(ethylamino)propyl]-1,2,3,4-tetrahydro-8-methyl-5H-[1]benzopyrano[3,4-c]pyridin-5-one] | 3.1 min
